Assay results as given in patent publication US7871635B2, “Use of compound that inactivates protein kinase A in a composition containing a cosmetically acceptable medium for lightening the skin” (Societe d'Exploitation de Produits pour les Industries …, priority 2002, dated 2011).

What was measured:
[1] = system: Pigmented human epidermides (phototype IV); test: Intracellular melanin content in reconstructed human epidermides; type: cell-based; conditions: topical, 4 days; for Intracellular melanin: control 347 ± 2 μg/ml
Procedure: Pigmented human epidermides (phototype IV) supplied by Skinethic, of 0.63 cm^2, are reconstructed from a coculture of normal human keratinocytes (skin of the forearm, donor, 2nd passage) and from normal human melanocytes (skin of the forearm, donor of phototype IV, 3rd passage). The keratinocyte/melanocyte ratio is 10:1. The cocultures are inoculated onto inert polycarbonate filters. They are cultured for 10 days in the medium supplied by Skinethic, consisting of MCDB 153 medium supplemented with 5 μg/ml of insulin, 1.5 mM of calcium and growth factors. […] The epidermides are cultured in 6-well plates containing 1 ml of the medium described above. […] The application is performed every day for 4 consecutive days. The incubation medium of the reconstructed epidermides is renewed every day for 4 consecutive days. Control epidermides are treated with a formulation free of active principle. Each test is performed in duplicate. […] Dermatol., 105, 1995, 361-366. The samples are centrifuged for 10 minutes at 10 000 rpm. The extracted intracellular […] measured by spectrophotometry at 500 nm. A melanin calibration range is prepared in parallel. The results are expressed as […] of intracellular melanin and as a percentage of inhibition relative to the control group.

[2] = system: B16/F1 melanocyte cultures; test: Intracellular protein content (cytotoxicity) in B16/F1 melanocyte cultures; type: cell-based, mouse
Procedure: Mouse melanocytes of the B16/F1 line are inoculated in 96-well culture plates at a density of 1500 cells/well. […] The cells are used at 60% of confluence, i.e. 4 days after inoculation. The MCM medium has the following composition: […] N-Undecylenoylphenylalanine is diluted to 4 mg/ml in decinormal aqueous sodium hydroxide solution. It is tested at 40 μg/ml in the MCM medium. Sodium hydroxide has no effect on the parameters analyzed. […] Given its toxicity, it is not tested at 40 μg/ml. […] Control cultures are incubated, in the absence of product, in the MCM medium. These control cultures are prepared on each culture plate. Each test is performed six times. This assay allows the cytotoxicity of the test products to be evaluated. It is performed in cell lysates prepared as described in the preceding paragraph. The protein assay is performed according to the Coomassie blue method described by: “Bradford M.; Anal. Biochem., 72, 1976, 248-254”. The measurement is performed by spectrophotometry at 640 nm. A bovine serum albumin (BSA) calibration range is prepared in parallel. The results are expressed as mg/ml of proteins and as a percentage of inhibition relative to the control group.

tyrosinase = test: Study of phosphorylated tyrosinase activity (L-tyrosine to dopaquinone, 490 nm); type: biochemical, fungi; conditions: tyrosinase 66.66 IU/ml, tyrosine 0.2 mM, 10 minutes at 37° C.
Procedure: The tyrosinase used is a commercial product extracted from fungi. […] Sodium hydroxide has no effect on the parameter studied. […] Control cultures are incubated, in the absence of product, and in the presence of tyrosinase and L-tyrosine. Each test is performed in triplicate. After incubation for 10 minutes, the amount of dopaquinone […] formed is measured using a spectrophotometer at 490 nm. The results given in the table below are the means of the three tests performed for each of the products. They are expressed as IU/l of tyrosinase activity and as a percentage of inhibition of the enzymatic activity relative to the control.

MC1R receptors = target: T1, MC1R receptors (Mus musculus, UniProt Q01727); test: Affinity study on MC1R receptors ([125I]NDP-α-MSH binding); conditions: for Activity relative to the control (percentage of specific binding): [125I]NDP-α-MSH 0.05 nM, 90 minutes at 22° C.; for inhibition at 100 µg/mL / inhibition at 1000 µg/mL: read-out: Inhibition of specific binding by the test products; for displacement of the specific binding of the ligand [125I]NDP-α-MSH: at the test concentrations (0.1 mg/ml and 1 mg/ml)
T1 construct: isolated from cell membranes of mouse melanocytes of the B16/F1 line; endogenous in cells; host or cells: B16/F1 mouse melanocyte (melanoma) cell membranes
Procedure: MC1R receptors are isolated from cell membranes of mouse melanocytes of the B16/F1 line via the method described in: Siegrist W., Oestreicher M., Stutz M., Girard J. and […]., 8, 1988, 323-343”. […] Sodium hydroxide has no effect on the parameter studied. The MC1R receptors are incubated, in the presence or absence of these products, with an iodine-125 labeled radioactive ligand, the […]-α-melanocyte […] hormone [^125I]NDP-α-MSH at a concentration of 0.05 nM, for 90 minutes at 22° C. Control cultures are incubated, in the absence of product, and in the presence of the radioactive ligand. Each test is performed in triplicate. After incubation for 90 minutes, the cell membranes are rapidly filtered and the filters are washed several times with cold buffer. The amount of radioactive ligand bound to the MC1R receptors is measured using a scintillation counter (Topcount, Packard). The results given in the table below are the means of the three tests performed for each of the products. They are expressed as a percentage of specific binding relative to the control group and as a percentage of inhibition of this binding.

Protein kinase A = test: Study of protein kinase A activity (phosphorylation of histone H1); type: biochemical, bovine; conditions: 1 mg/ml; for Enzymatic activity relative to the control (protein kinase A): cAMP 3 μM, histone H1 200 μg/ml, 20 minutes at 30° C.
Procedure: The influence of N-undecylenoylphenylalanine, kojic acid and arbutin on the phosphorylation of […] with protein kinase A (PK A) was compared. Protein kinase A is extracted from bovine brains via the method described in: “[…]., Sano M., Hayashi K., Inoue T., Naito […]. Biol. Chem., 265, 1990, 5267-5272”. […] Sodium hydroxide has no effect on the parameter studied. […] Control cultures are incubated, in the absence of product, and in the presence of radioactive ATP and histone H1. Each test is performed in triplicate. […] The results given in the table below are the means of the three tests performed for each of the products. They are expressed as a percentage of enzymatic activity relative to the control group and as a percentage of inhibition.

[3] = at 40 μg/ml, 72 hours, control 0.45 ± 0.01

T1 sequence (Q01727 whole entry): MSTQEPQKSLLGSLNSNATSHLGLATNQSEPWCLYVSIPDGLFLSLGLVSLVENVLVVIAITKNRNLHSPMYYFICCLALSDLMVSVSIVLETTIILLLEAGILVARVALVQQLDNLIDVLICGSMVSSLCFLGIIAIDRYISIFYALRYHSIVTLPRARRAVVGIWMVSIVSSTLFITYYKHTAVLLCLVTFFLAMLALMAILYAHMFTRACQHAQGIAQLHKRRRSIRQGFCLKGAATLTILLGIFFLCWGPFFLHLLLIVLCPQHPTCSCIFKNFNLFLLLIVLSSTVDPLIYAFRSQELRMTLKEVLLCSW

Oc1ccc(O)cc1 [Hydroquinone, hydroquinone]
Intracellular melanin ([1]; formulated at 0.1% (w/v)): 317 ± 0 µg/mL | Inhibition of protein quantity ([2]; mouse, 72 h, 5 μg/ml): 38% | Total proteins ([2]; mouse, 72 h, 5 μg/ml): 0.28 ± 0.01 mg/mL | Percentage of inhibition of tyrosinase activity with the test products relative to the control (tyrosinase; at 0.1 mg/ml): 78% | Percentage of inhibition of tyrosinase activity with the test products relative to the control (tyrosinase; at 1 mg/ml): 80%

C=CCCCCCCCCC(=O)NC(Cc1ccccc1)C(=O)O (centres unmarked) [N-Undecylenoylphenylalanine, N-(ω-undecylenoyl)phenylalanine]
Inhibition of specific binding by the test products (MC1R receptors; at 0.1 mg/ml): 42.3% | Activity relative to the control (percentage of specific binding) (MC1R receptors; at 0.1 mg/ml): 57.70 ± 2.38% | inhibition at 100 µg/mL (MC1R receptors; at 0.1 mg/ml): 42% | Inhibition of specific binding by the test products (MC1R receptors; at 1 mg/ml): 95.8% | Activity relative to the control (percentage of specific binding) (MC1R receptors; at 1 mg/ml): 4.20 ± 0.86% | inhibition at 1000 µg/mL (MC1R receptors; at 1 mg/ml): 96% | Intracellular melanin ([1]; formulated at 1% (w/v)): 264 ± 9 µg/mL | Inhibition of the amount of intracellular melanin ([1]; formulated at 3% (w/v)): 24% | Intracellular melanin ([1]; formulated at 3% (w/v)): 264 ± 11 µg/mL | Inhibition of the amount of intracellular melanin ([1]; formulated at 3% (w/v), listed as N-undecylenoylphenylalanine): 24% | Inhibition of protein quantity ([2]; at 40 μg/ml, 72 hours): 17% | Total proteins [2, 3]: 0.38 ± 0.01 mg/mL | Percentage of inhibition of tyrosinase activity with the test products relative to the control (tyrosinase; at 0.1 mg/ml): 80% | Percentage of inhibition of tyrosinase activity with the test products relative to the control (tyrosinase; at 1 mg/ml): 100% | Inhibition of protein kinase A activity (Protein kinase A): 100% | Enzymatic activity relative to the control (protein kinase A) (Protein kinase A): −0.4 ± 0.3% | Inhibition of protein kinase A activity (Protein kinase A; listed as N-undecylenoylphenylalanine): totally inhibits

OC[C@H]1O[C@@H](Oc2ccc(O)cc2)[C@H](O)[C@@H](O)[C@@H]1O [Arbutin, arbutin]
Activity relative to the control (percentage of specific binding) (MC1R receptors; at 0.1 mg/ml): 100.80 ± 0.55% | inhibition at 100 µg/mL (MC1R receptors; at 0.1 mg/ml): 0% | Activity relative to the control (percentage of specific binding) (MC1R receptors; at 1 mg/ml): 96.30 ± 4.16% | inhibition at 1000 µg/mL (MC1R receptors; at 1 mg/ml): 3.7% | displacement of the specific binding of the ligand [125I]NDP-α-MSH (MC1R receptors): neither arbutin nor kojic acid, which are the reference depigmenting compounds, displaces the specific binding | Intracellular melanin ([1]; formulated at 1% (w/v)): 242 ± 46 µg/mL | Intracellular melanin ([1]; formulated at 3% (w/v)): 263 ± 16 µg/mL | Total proteins [2, 3]: 0.43 ± 0.01 mg/mL | Percentage of inhibition of tyrosinase activity with the test products relative to the control (tyrosinase; at 0.1 mg/ml): 73% | Percentage of inhibition of tyrosinase activity with the test products relative to the control (tyrosinase; at 1 mg/ml): 80% | Inhibition of protein kinase A activity (Protein kinase A): 9.1% | Enzymatic activity relative to the control (protein kinase A) (Protein kinase A): 90.9 ± 8.4%

O=c1cc(CO)occ1O [Kojic acid, kojic acid]
inhibition at 100 µg/mL (MC1R receptors; at 0.1 mg/ml): 0% | inhibition at 1000 µg/mL (MC1R receptors; at 1 mg/ml): 0% | displacement of the specific binding of the ligand [125I]NDP-α-MSH (MC1R receptors): neither arbutin nor kojic acid, which are the reference depigmenting compounds, displaces the specific binding | Intracellular melanin ([1]; formulated at 1% (w/v)): 273 ± 2 µg/mL | Intracellular melanin ([1]; formulated at 3% (w/v)): 234 ± 19 µg/mL | Total proteins ([2]; mouse, 72 h, 40 μg/ml): 0.41 ± 0.02 mg/mL | Inhibition of protein kinase A activity (Protein kinase A): 0%
